# Laboratory results as given in patent US12077503B2, “Substituted cyclic amides and their use as herbicides” (FMC CORPORATION, priority 2015, dated 2024).
# Like-named read-outs stand apart in the source and are kept apart here.
# Legend:
# Test in all cases: Test A preemergence
# Type in all cases: in vivo
# [1] = system: pigweed (Amaranthus retroflexus); details: Amaranthus retroflexus, pre-emergence, 240 h; for pest or weed control at 125 g/ha: 125 g ai/ha; for pest or weed control at 500 g/ha: 500 g ai/ha
# [2] = system: ragweed (common ragweed, Ambrosia elatior); details: Ambrosia artemisiifolia, pre-emergence, 240 h; for pest or weed control at 125 g/ha: 125 g ai/ha; for pest or weed control at 500 g/ha: 500 g ai/ha
# In short: (§1)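 Greenhouse, ~10 d after spray; visual injury vs untreated controls, 0 = no effect, 100 = complete control. Preemergence: directed soil spray over planted seeds. Postemergence: plants 2–10 cm, 1–2 leaf stage. Loam/sand blend. Compound in non-phytotoxic solvent with surfactant.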
# Kochia (Kochia scoparia) = details: Bassia scoparia, pre-emergence, 240 h; for pest or weed control at 125 g/ha: 125 g ai/ha; for pest or weed control at 500 g/ha: 500 g ai/ha
# In short: as §1
# [3] = system: giant foxtail (Setaria faberii); details: Setaria faberi, pre-emergence, 240 h; for pest or weed control at 125 g/ha: 125 g ai/ha; for pest or weed control at 500 g/ha: 500 g ai/ha
# In short: as §1
# [4] = system: ryegrass, Italian (Italian ryegrass, Lolium multiflorum); details: Lolium multiflorum, pre-emergence, 240 h; for pest or weed control at 125 g/ha: 125 g ai/ha; for pest or weed control at 500 g/ha: 500 g ai/ha
# In short: as §1
# [5] = preemergence, 0 to 100 scale where 0 is no effect and 100 is complete control, read-out: Pigweed plant response rating
# [6] = Preemergence, visual injury vs untreated controls after approximately 10 d, read-out: Pigweed plant response rating (0 to 100 scale where 0 is no effect and 100 is complete control)
# [7] = preemergence, 0 to 100 scale where 0 is no effect and 100 is complete control, read-out: Ragweed plant response rating
# [8] = Preemergence, visual injury vs untreated controls after approximately 10 d, read-out: Ragweed plant response rating (0 to 100 scale where 0 is no effect and 100 is complete control)
# [9] = preemergence, 0 to 100 scale where 0 is no effect and 100 is complete control, read-out: Kochia plant response rating
# [10] = Preemergence, visual injury vs untreated controls after approximately 10 d, read-out: Kochia plant response rating (0 to 100 scale where 0 is no effect and 100 is complete control)
# [11] = preemergence, 0 to 100 scale where 0 is no effect and 100 is complete control, read-out: Foxtail, Giant plant response rating
# [12] = Preemergence, visual injury vs untreated controls after approximately 10 d, read-out: Foxtail, Giant plant response rating (0 to 100 scale where 0 is no effect and 100 is complete control)
# [13] = preemergence, 0 to 100 scale where 0 is no effect and 100 is complete control, read-out: Ryegrass, Italian plant response rating
# [14] = Preemergence, visual injury vs untreated controls after approximately 10 d, read-out: Ryegrass, Italian plant response rating (0 to 100 scale where 0 is no effect and 100 is complete control)
# [15] = Preemergence, visual injury rating after approximately 10 d, read-out: Pigweed plant response rating (0 to 100 scale, 0 is no effect, 100 is complete control)
# [16] = preemergence, visual injury rating about 10 d after treatment, 0 to 100 scale (0 no effect, 100 complete control), read-out: Pigweed plant response rating
# [17] = Preemergence, visual injury rating after approximately 10 d, read-out: Ragweed plant response rating (0 to 100 scale, 0 is no effect, 100 is complete control)
# [18] = preemergence, visual injury rating about 10 d after treatment, 0 to 100 scale (0 no effect, 100 complete control), read-out: Ragweed plant response rating
# [19] = Preemergence, visual injury rating after approximately 10 d, read-out: Kochia plant response rating (0 to 100 scale, 0 is no effect, 100 is complete control)
# [20] = preemergence, visual injury rating about 10 d after treatment, 0 to 100 scale (0 no effect, 100 complete control), read-out: Kochia plant response rating
# [21] = Preemergence, visual injury rating after approximately 10 d, read-out: Foxtail, Giant plant response rating (0 to 100 scale, 0 is no effect, 100 is complete control)
# [22] = preemergence, visual injury rating about 10 d after treatment, 0 to 100 scale (0 no effect, 100 complete control), read-out: Foxtail, Giant plant response rating
# [23] = Preemergence, visual injury rating after approximately 10 d, read-out: Ryegrass, Italian plant response rating (0 to 100 scale, 0 is no effect, 100 is complete control)
# [24] = preemergence, visual injury rating about 10 d after treatment, 0 to 100 scale (0 no effect, 100 complete control), read-out: Ryegrass, Italian plant response rating
SMILES,"pest or weed control at 125 g/ha [1, 5] [%]","pest or weed control at 500 g/ha [1, 6] [%]","pest or weed control at 125 g/ha [2, 7] [%]","pest or weed control at 500 g/ha [2, 8] [%]",pest or weed control at 125 g/ha (Kochia (Kochia scoparia); [9]) [%],pest or weed control at 500 g/ha (Kochia (Kochia scoparia); [10]) [%],"pest or weed control at 125 g/ha [3, 11] [%]","pest or weed control at 500 g/ha [3, 12] [%]","pest or weed control at 125 g/ha [4, 13] [%]","pest or weed control at 500 g/ha [4, 14] [%]",other results
COc1ccccc1NC(=O)[C@H]1C(=O)N(C)C[C@@H]1c1ccc(C(F)(F)F)cc1 [Compound 843],0,40,0,30,60,70,90,90,0,50,–
O=C1NC[C@H](c2ccc3c(c2)OCO3)[C@H]1C(=O)Nc1ccc(F)cc1F [Compound 1026],–,–,–,–,–,–,–,–,–,–,"pest or weed control at 125 g/ha [1, 15]: 0%; pest or weed control at 500 g/ha [1, 16]: 0%; pest or weed control at 125 g/ha [2, 17]: 50%; pest or weed control at 500 g/ha [2, 18]: 50%; pest or weed control at 125 g/ha (Kochia (Kochia scoparia); [19]): 30%; pest or weed control at 500 g/ha (Kochia (Kochia scoparia); [20]): 80%; pest or weed control at 125 g/ha [3, 21]: 30%; pest or weed control at 500 g/ha [3, 22]: 90%; pest or weed control at 125 g/ha [4, 23]: 0%; pest or weed control at 500 g/ha [4, 24]: 0%"
Cc1c(F)cccc1NC(=O)[C@H]1C(=O)N(C)C[C@@H]1c1cccc(COC(F)F)c1 [Compound 874],20,30,20,60,60,90,90,100,40,50,–
COc1c(F)ccc([C@H]2CNC(=O)[C@@H]2C(=O)Nc2ccc(F)c(F)c2F)c1Cl [Compound 890],30,50,0,0,40,90,90,90,50,70,–
Cc1cc(C)cc([C@H]2CNC(=O)[C@@H]2C(=O)Nc2cccc(F)c2F)c1 [Compound 889],0,0,30,40,80,80,90,90,30,40,–
CC(C)Oc1ccc([C@H]2CNC(=O)[C@@H]2C(=O)Nc2ccc(F)cc2F)cc1 [Compound 1137],–,–,–,–,–,–,–,–,–,–,"pest or weed control at 125 g/ha ([1]; preemergence, 0 to 100 scale where 0 is no effect and 100 is complete control, approx. 10 d, read-out: Pigweed plant response rating): 0%; pest or weed control at 500 g/ha [1, 5]: 0%; pest or weed control at 125 g/ha ([2]; preemergence, 0 to 100 scale where 0 is no effect and 100 is complete control, approx. 10 d, read-out: Ragweed plant response rating): 0%; pest or weed control at 500 g/ha [2, 7]: 0%; pest or weed control at 125 g/ha (Kochia (Kochia scoparia); preemergence, 0 to 100 scale where 0 is no effect and 100 is complete control, approx. 10 d, read-out: Kochia plant response rating): 0%; pest or weed control at 500 g/ha (Kochia (Kochia scoparia); [9]): 0%; pest or weed control at 125 g/ha ([3]; preemergence, 0 to 100 scale where 0 is no effect and 100 is complete control, approx. 10 d, read-out: Foxtail, Giant plant response rating): 0%; pest or weed control at 500 g/ha [3, 11]: 0%; pest or weed control at 125 g/ha ([4]; preemergence, 0 to 100 scale where 0 is no effect and 100 is complete control, approx. 10 d, read-out: Ryegrass, Italian plant response rating): 0%; pest or weed control at 500 g/ha [4, 13]: 0%"
CS(=O)(=O)c1ccccc1NC(=O)[C@H]1C(=O)NC[C@@H]1c1cc(F)c(C(F)(F)F)c(F)c1 [Compound 839],90,90,80,90,90,90,90,90,0,40,–
CON1CC[C@H](c2ccc(F)cc2)[C@@H](C(=O)Nc2cccc(F)c2F)C1=O [Compound 918],0,0,0,0,0,0,20,70,0,0,–
CN1C[C@H](c2cccc(C3CC3)c2)[C@@H](C(=O)Nc2ccccc2S(C)(=O)=O)C1=O [Compound 817],0,80,20,50,50,70,90,90,20,40,–
CC(C)COc1cccc([C@H]2CN(C)C(=O)[C@@H]2C(=O)Nc2ccc(F)cc2F)c1 [Compound 1030],–,–,–,–,–,–,–,–,–,–,"pest or weed control at 125 g/ha [1, 15]: 0%; pest or weed control at 500 g/ha [1, 16]: 0%; pest or weed control at 125 g/ha [2, 17]: 0%; pest or weed control at 500 g/ha [2, 18]: 0%; pest or weed control at 125 g/ha (Kochia (Kochia scoparia); [19]): 0%; pest or weed control at 500 g/ha (Kochia (Kochia scoparia); [20]): 70%; pest or weed control at 125 g/ha [3, 21]: 90%; pest or weed control at 500 g/ha [3, 22]: 90%; pest or weed control at 125 g/ha [4, 23]: 70%; pest or weed control at 500 g/ha [4, 24]: 70%"
COc1ccc([C@H]2CN(C)C(=O)[C@@H]2C(=O)Nc2cccc(F)c2F)cc1OC [Compound 853],40,40,0,20,40,40,90,100,0,60,–
